Experiments:
Details in all cases: exposure time: 72 h
E34 [1] = patient-derived glioblastoma stem cells of proneural subtype; assay: surviving fraction (nuclei count normalised to DMSO); higher = more cells surviving (less toxic)
E57 [2] = patient-derived glioblastoma stem cells of mesenchymal subtype; assay: as above
E31 [3] = patient-derived glioblastoma stem cells of proneural subtype; assay: as above
E28 [4] = patient-derived glioblastoma stem cells of classical subtype; assay: as above
E21 [5] = patient-derived glioblastoma stem cells of mesenchymal subtype; assay: as above
FT3469 [6] = normal neural stem cell line; assay: as above
E13 [7] = patient-derived glioblastoma stem cells of classical subtype; assay: as above
E34 [8] = assay: phenotypic distance (Euclidean, principal components) from DMSO controls (arbitrary units); higher = stronger morphological change
E57 [9] = assay: as above
E31 [10] = assay: as above
E28 [11] = assay: as above
E21 [12] = assay: as above
FT3469 [13] = assay: as above
E13 [14] = assay: as above
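Wherever phenotypic distance (Euclidean, principal components) from DMSO controls is given: cell Painting imaging in 384-well plates, CellProfiler features reduced to at least 20 principal components, Euclidean distance versus same-plate DMSO vehicle wells (0.1% v/v), median over six images per well.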
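Wherever surviving fraction (nuclei count normalised to DMSO) is given: nuclei counted by high-content imaging of Hoechst-stained cells in laminin-coated 384-well plates, relative to 0.1% DMSO vehicle wells, with staurosporine as cell-death control.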

CC1(C(=O)O)C2CCC(O2)C1(C)C(=O)O (stereo not drawn) [Cantharidic Acid]
Details	phenotypic distance	surviving fraction
E13 [7], 4.1 nM	–	0.839
E13 [7], 12.3 nM	–	0.973
E13 [7], 37 nM	–	0.995
E13 [7], 111.1 nM	–	1.11
E13 [7], 333.3 nM	–	0.921
E13 [7], 1000 nM	–	1.02
E13 [7], 3000 nM	–	0.939
E13 [14], 4.1 nM	0.746	–
E13 [14], 12.3 nM	0.673	–
E13 [14], 37 nM	0.774	–
E13 [14], 111.1 nM	0.872	–
E13 [14], 333.3 nM	0.83	–
E13 [14], 1000 nM	0.671	–
E13 [14], 3000 nM	2.26	–
E21 [5], 4.1 nM	–	0.955
E21 [5], 12.3 nM	–	0.853
E21 [5], 37 nM	–	1.11
E21 [5], 111.1 nM	–	1
E21 [5], 333.3 nM	–	1.03
E21 [5], 1000 nM	–	0.954
E21 [5], 3000 nM	–	0.922
E21 [12], 4.1 nM	0.625	–
E21 [12], 12.3 nM	0.711	–
E21 [12], 37 nM	1.21	–
E21 [12], 111.1 nM	0.773	–
E21 [12], 333.3 nM	0.585	–
E21 [12], 1000 nM	0.482	–
E21 [12], 3000 nM	2.17	–
E28 [4], 4.1 nM	–	0.901
E28 [4], 12.3 nM	–	1.05
E28 [4], 37 nM	–	0.971
E28 [4], 111.1 nM	–	1.07
E28 [4], 333.3 nM	–	1.11
E28 [4], 1000 nM	–	1.15
E28 [4], 3000 nM	–	0.771
E28 [11], 4.1 nM	0.917	–
E28 [11], 12.3 nM	0.654	–
E28 [11], 37 nM	0.463	–
E28 [11], 111.1 nM	0.528	–
E28 [11], 333.3 nM	0.599	–
E28 [11], 1000 nM	0.909	–
E28 [11], 3000 nM	2.54	–
E31 [3], 4.1 nM	–	1.07
E31 [3], 12.3 nM	–	1
E31 [3], 37 nM	–	1.16
E31 [3], 111.1 nM	–	1.05
E31 [3], 333.3 nM	–	1.04
E31 [3], 1000 nM	–	1.08
E31 [3], 3000 nM	–	0.683
E31 [10], 4.1 nM	1.05	–
E31 [10], 12.3 nM	0.816	–
E31 [10], 37 nM	1.07	–
E31 [10], 111.1 nM	1.09	–
E31 [10], 333.3 nM	0.68	–
E31 [10], 1000 nM	0.624	–
E31 [10], 3000 nM	1.67	–
E34 [1], 4.1 nM	–	0.916
E34 [1], 12.3 nM	–	1.08
E34 [1], 37 nM	–	0.914
E34 [1], 111.1 nM	–	1.1
E34 [1], 333.3 nM	–	1.22
E34 [1], 1000 nM	–	1.06
E34 [1], 3000 nM	–	0.832
E34 [8], 4.1 nM	1.38	–
E34 [8], 12.3 nM	1.36	–
E34 [8], 37 nM	1.46	–
E34 [8], 111.1 nM	1.49	–
E34 [8], 333.3 nM	1.07	–
E34 [8], 1000 nM	0.864	–
E34 [8], 3000 nM	3.29	–
E57 [2], 4.1 nM	–	0.985
E57 [2], 12.3 nM	–	0.996
E57 [2], 37 nM	–	0.944
E57 [2], 111.1 nM	–	1.03
E57 [2], 333.3 nM	–	1.04
E57 [2], 1000 nM	–	1.03
E57 [2], 3000 nM	–	0.947
E57 [9], 4.1 nM	0.632	–
E57 [9], 12.3 nM	0.322	–
E57 [9], 37 nM	0.414	–
E57 [9], 111.1 nM	0.564	–
E57 [9], 333.3 nM	0.544	–
E57 [9], 1000 nM	0.751	–
E57 [9], 3000 nM	1.72	–
FT3469 [6], 4.1 nM	–	0.889
FT3469 [6], 12.3 nM	–	0.855
FT3469 [6], 37 nM	–	1.07
FT3469 [6], 111.1 nM	–	1.03
FT3469 [6], 333.3 nM	–	1
FT3469 [6], 1000 nM	–	1.06
FT3469 [6], 3000 nM	–	0.777
FT3469 [13], 4.1 nM	1.06	–
FT3469 [13], 12.3 nM	0.717	–
FT3469 [13], 37 nM	0.644	–
FT3469 [13], 111.1 nM	0.683	–
FT3469 [13], 333.3 nM	0.991	–
FT3469 [13], 1000 nM	0.653	–
FT3469 [13], 3000 nM	2.25	–

From the supplement of paper PMC13207355
